Measurements from patent US11090308B2, “Methods of treating liver disorders or lipid disorders with a THR-beta agonist” (Madrigal Pharmaceuticals, Inc., priority 2016, dated 2021).
Where two headings read alike, the source gives them in different places.

Key:
Format in all cases: in vitro ADME
OATP1B1 = molecular target: T1, OATP1B1 (Homo sapiens, UniProt Q9Y6L6); assay: In vitro drug transporter assay, OATP1B1
T1 sequence (Q9Y6L6 1-691): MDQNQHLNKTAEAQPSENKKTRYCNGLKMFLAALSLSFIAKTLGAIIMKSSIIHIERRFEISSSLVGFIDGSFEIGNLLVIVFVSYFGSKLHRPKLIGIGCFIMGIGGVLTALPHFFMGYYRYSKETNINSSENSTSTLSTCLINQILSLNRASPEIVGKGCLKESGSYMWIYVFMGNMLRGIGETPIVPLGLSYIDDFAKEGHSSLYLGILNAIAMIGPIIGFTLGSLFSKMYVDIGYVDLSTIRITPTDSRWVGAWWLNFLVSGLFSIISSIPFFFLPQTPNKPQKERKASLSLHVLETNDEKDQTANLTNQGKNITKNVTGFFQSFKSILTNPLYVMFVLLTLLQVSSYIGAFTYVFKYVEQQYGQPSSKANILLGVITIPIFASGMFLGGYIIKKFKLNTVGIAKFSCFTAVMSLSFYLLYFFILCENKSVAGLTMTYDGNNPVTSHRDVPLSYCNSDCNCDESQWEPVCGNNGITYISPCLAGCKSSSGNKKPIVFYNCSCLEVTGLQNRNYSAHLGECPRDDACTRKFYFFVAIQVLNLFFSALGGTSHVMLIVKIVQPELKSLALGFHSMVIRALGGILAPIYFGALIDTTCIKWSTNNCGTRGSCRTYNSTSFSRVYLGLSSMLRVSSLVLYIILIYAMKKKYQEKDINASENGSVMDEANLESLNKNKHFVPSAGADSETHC
Text: (§1) The following studies have been conducted: (a) in vitro drug protein binding, transporter (organic anion transporting polypeptide [OATP], P-glycoprotein [P-gp], breast cancer-related protein [BCRP], and multiple drug resistance protein 1 [MDR1]), and cytochrome P-450 enzyme assays to investigate absorption, distribution, and excretion; (b) in vivo MGL-3196 rat and dog oral PK and bioavailability studies; (c) in vivo ^14C-MGL-3196 rat and dog oral pharmacokinetics, absorption, excretion, and tissue distribution by quantitative whole-body autoradiography (QWBA) studies; and (d) liver disposition of MGL-3196 using an in vitro sandwiched hepatocyte model system (B-CLEAR® technology) in dog (SCDH) and human (SCHH) hepatocytes.

CYP3A4/5 = assay: In vitro Cytochrome P-450 enzyme assay, CYP3A4/5
[1] = system: sandwich-cultured dog hepatocytes (SCDH); assay: Hepatobiliary disposition in sandwich-cultured dog hepatocytes (SCDH)
Text: as §1
Parameters determined: • Bile Accumulation=Total Accumulationplus(+)Buffer−Cellular AccumulationMinus(−)Buffer
[formula] • AUC=(Incubation Time)*(Analyte ConcentrationMedia) • In vitro biliary clearance:
[formula] • (Kp ratio reflects the extent of MGL-3196 accumulation in hepatocyte to the total MGL-3196 concentration in the buffer, outside of the hepatocyte).
MGL-3196 and its metabolite, MGL-3196-M1 (M1), were evaluated in sandwich-cultured human hepatocytes (SCHH) to evaluate the effects of temperature and concentration on total accumulation. Incubations were performed in presence of 4% bovine serum albumin (BSA) for 20 minutes at 37° C. and 4° C. across multiple concentrations (3, 10, 30, and 100 μM). Following the hepatic accumulation study, a species comparison of the hepatobiliary disposition of MGL-3196 (30 μM) and its metabolite, M1, was evaluated in SCHH and sandwich-cultured dog hepatocytes (SCDH) in the presence of 4% BSA.

CYP2C9 = CYP2C9 (Homo sapiens, UniProt P11712); assay: In vitro Cytochrome P-450 enzyme assay, CYP2C9; details: for IC50: read-out: Inhibitor of: CYP2C9, IC50
Chain of CYP2C9 (P11712 whole entry): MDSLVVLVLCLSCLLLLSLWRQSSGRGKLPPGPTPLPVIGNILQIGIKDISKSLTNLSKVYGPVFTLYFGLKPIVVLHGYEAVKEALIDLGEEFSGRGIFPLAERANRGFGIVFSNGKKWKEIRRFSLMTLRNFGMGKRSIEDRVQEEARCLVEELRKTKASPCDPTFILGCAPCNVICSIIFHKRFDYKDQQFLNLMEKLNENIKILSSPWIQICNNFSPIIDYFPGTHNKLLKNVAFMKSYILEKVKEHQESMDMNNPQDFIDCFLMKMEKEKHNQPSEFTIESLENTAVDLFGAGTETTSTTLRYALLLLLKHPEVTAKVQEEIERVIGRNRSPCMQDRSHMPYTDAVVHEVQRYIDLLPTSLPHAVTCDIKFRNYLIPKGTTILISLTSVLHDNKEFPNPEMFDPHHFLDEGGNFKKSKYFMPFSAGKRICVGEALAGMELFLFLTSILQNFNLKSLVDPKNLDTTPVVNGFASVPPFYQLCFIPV

CYP3A4 = CYP3A4 (Homo sapiens, UniProt P08684); assay: In vitro Cytochrome P-450 enzyme assay, CYP3A4
Chain of CYP3A4 (P08684 2-503 limits assumed): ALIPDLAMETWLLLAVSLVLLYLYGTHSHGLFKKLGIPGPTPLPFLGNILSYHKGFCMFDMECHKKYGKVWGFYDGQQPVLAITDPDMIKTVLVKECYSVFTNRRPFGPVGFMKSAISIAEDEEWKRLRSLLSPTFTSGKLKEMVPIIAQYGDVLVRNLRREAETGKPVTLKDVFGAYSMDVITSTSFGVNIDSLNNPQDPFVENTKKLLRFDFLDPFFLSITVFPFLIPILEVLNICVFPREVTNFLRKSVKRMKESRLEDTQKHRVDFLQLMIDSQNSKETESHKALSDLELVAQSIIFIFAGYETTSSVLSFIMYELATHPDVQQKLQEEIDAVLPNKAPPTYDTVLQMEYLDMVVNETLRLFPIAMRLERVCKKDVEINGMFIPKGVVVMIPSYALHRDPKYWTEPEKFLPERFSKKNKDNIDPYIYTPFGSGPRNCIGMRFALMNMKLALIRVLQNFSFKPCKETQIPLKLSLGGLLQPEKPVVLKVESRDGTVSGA
Text: as §1

CYP1A2 = molecular target: T2, CYP1A2 (Homo sapiens, UniProt P05177); assay: In vitro Cytochrome P-450 enzyme assay, CYP1A2
T2 sequence (P05177 1-516): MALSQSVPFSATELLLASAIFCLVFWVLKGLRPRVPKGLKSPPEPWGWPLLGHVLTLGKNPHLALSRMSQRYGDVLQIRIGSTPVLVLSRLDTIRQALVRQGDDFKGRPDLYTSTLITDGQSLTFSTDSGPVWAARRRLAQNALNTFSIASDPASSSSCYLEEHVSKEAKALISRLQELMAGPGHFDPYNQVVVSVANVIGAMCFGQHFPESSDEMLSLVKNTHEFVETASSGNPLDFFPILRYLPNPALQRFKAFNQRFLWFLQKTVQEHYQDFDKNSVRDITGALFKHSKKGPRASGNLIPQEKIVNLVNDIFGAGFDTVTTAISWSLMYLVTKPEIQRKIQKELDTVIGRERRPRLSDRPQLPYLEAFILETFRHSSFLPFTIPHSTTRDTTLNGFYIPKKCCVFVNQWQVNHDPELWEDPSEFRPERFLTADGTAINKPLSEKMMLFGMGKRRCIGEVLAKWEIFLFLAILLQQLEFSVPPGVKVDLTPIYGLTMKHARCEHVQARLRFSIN
Text: as §1

OATP1B3 = molecular target: T3, OATP1B3 (Homo sapiens, UniProt Q9NPD5); assay: In vitro drug transporter assay, OATP1B3
T3 sequence (Q9NPD5 1-702): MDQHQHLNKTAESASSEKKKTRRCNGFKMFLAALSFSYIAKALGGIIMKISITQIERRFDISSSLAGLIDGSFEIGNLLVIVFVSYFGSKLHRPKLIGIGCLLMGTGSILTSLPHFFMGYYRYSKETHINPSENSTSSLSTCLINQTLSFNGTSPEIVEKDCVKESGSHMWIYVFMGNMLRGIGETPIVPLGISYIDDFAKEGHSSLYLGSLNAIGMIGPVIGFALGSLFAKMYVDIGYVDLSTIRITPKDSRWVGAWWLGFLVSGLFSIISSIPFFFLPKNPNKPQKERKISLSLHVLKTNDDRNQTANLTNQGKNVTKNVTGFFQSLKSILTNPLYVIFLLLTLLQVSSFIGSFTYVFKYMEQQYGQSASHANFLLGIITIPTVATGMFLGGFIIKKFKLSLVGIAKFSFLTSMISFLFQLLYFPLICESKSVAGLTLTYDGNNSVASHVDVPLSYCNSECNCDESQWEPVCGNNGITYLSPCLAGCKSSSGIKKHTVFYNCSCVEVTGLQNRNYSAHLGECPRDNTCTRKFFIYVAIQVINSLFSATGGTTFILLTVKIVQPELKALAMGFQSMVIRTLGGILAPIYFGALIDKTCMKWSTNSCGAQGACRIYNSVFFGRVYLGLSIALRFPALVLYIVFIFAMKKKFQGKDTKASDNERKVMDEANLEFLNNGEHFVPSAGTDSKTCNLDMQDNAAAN
Text: as §1

[2] = SCDH, 20 min exposure to MGL-3196 30 μM, 4% BSA

CC(C)c1cc(Oc2c(Cl)cc(-n3nc(C#N)c(=O)[nH]c3=O)cc2Cl)n[nH]c1=O [MGL-3196, 2-(3,5-dichloro-4-((5-isopropyl-6-oxo-1,6-dihydropyridazin-3-yl)oxy)phenyl)-3,5-dioxo-2,3,4,5-tetrahydro-1,2,4-triazine-6-carbonitrile]
Substrate for: OATP1B1 (OATP1B1): OATP1B1; | Inhibitor of: OATP1B1, % inhibition (OATP1B1; @ 10 uM Pravastatin): 29% | IC50 (OATP1B1; read-out: Inhibitor of: OATP1B1, IC50): 3.7 µM | Inhibitor of: CYP3A4/5 (CYP3A4/5): not an inhibitor | Total accumulation in SCDH lower than in SCHH ([1]; 30 μM, 20-minute exposure): ~81% | biliary clearance estimates lower in dog than human hepatocytes ([1]; SCDH vs SCHH): ~46% | BEI (Biliary Excretion Index) [1, 2]: 48.7% | Bile Acc. [1, 2]: 86.2 pmol/mg | Cellular Acc. [1, 2]: 80.3 pmol/mg | ClBiliary (in vitro biliary clearance) [1, 2]: 0.784 mL/min/kg | ICC (intracellular concentration) [1, 2]: 10.4 µM | Kp [1, 2]: 0.348 Ratio | Total Acc. [1, 2]: 167 pmol/mg | Substrate for: CYP2C9 (CYP2C9): CYP2C9; | IC50 (CYP2C9): 22 µM | Inhibitor of: CYP3A4 (CYP3A4): CYP3A4 (weak inhibitor) | Inhibitor of: CYP1A2 (CYP1A2): not an inhibitor | Substrate for: OATP1B3 (OATP1B3): OATP1B3; | Inhibitor of: OATP1B3, % inhibition (OATP1B3; @ 10 uM Pravastatin): OATP1B3 (57% @ 10 uM Pravastatin)

CC(CO)c1cc(Oc2c(Cl)cc(-n3nc(C#N)c(=O)[nH]c3=O)cc2Cl)n[nH]c1=O (centres unmarked) [MGL-3623]
Substrate for: OATP1B1 (OATP1B1): OATP1B1 | inhibition at 10 µM (OATP1B1; @10 uM, insignificant, read-out: Inhibitor of: OATP1B1, % inhib): 23% | IC50 (CYP3A4/5; human, weak, read-out: Inhibitor of: CYP3A4/5, IC50): 35 µM | Cellular Acc. [1, 2]: BLQ | PIS (post incubation supernatant, cell culture media) [1, 2]: BLQ | Total Acc. [1, 2]: BLQ | IC50 (CYP2C9; range given jointly for CYP2B6, CYP2C9, CYP2C19, weak): 24 to 35 µM | IC50 (CYP1A2; read-out: Inhibitor of: CYP1A2, IC50): > 50 µM | Substrate for: OATP1B3 (OATP1B3): OATP1B3 | IC50 (OATP1B3; weak, read-out: Inhibitor of: OATP1B3, IC50): 22.6 µM
